# According to patent publication US4336375A, “Cephalosporanic acid derivatives” (American Cyanamid Company, priority 1980, dated 1982):
# Where two headings read alike, the source gives them in different places.
# Tests used:
# Type in all cases: cell-based
# [1] = tested on: Pseudomonas aeruginosa 12-4-4; experiment: In vitro MIC, agar dilution, Pseudomonas aeruginosa 12-4-4; conditions: read-out: Minimal Inhibitory Concentration
# Experimental: (§1) The in vitro activity of representative compounds of the present invention are given in the following Table I in terms of minimal inhibitory concentration. The test used was the standard agar dilution test using a Steers multiple inocula replicator and incubating at 35° C. for 18 hours in conventional nutrient agar.
# [2] = tested on: Klebsiella pneumoniae W75-2; experiment: In vitro MIC, agar dilution, Klebsiella pneumoniae W75-2; conditions: read-out: Minimal Inhibitory Concentration
# Experimental: as §1
# Escherichia coli OSU75-1 = experiment: In vitro MIC, agar dilution, Escherichia coli OSU75-1; conditions: OSU751, 35° C., 18 hours, nutrient agar, read-out: Minimal Inhibitory Concentration
# Experimental: as §1
# Serratia marcens K77-1 = experiment: In vitro MIC, agar dilution, Serratia marcens K77-1; conditions: read-out: Minimal Inhibitory Concentration
# Experimental: as §1
# [3] = tested on: Enterobacter cloacae MA75-1; experiment: In vitro MIC, agar dilution, Enterobacter cloacae MA75-1; conditions: read-out: Minimal Inhibitory Concentration
# Experimental: as §1
# [4] = tested on: Pseudomonas aeruginosa G236; experiment: In vitro MIC, agar dilution, Pseudomonas aeruginosa G236; conditions: read-out: Minimal Inhibitory Concentration
# Experimental: as §1
# Klebsiella pneumoniae AD = experiment: In vitro MIC, agar dilution, Klebsiella pneumoniae AD; conditions: read-out: Minimal Inhibitory Concentration
# Experimental: as §1
# [5] = tested on: Enterobacter cloacae OSU75-2; experiment: In vitro MIC, agar dilution, Enterobacter cloacae OSU75-2; conditions: read-out: Minimal Inhibitory Concentration
# Experimental: as §1
# [6] = tested on: Staphylococcus aureus Q74-1; experiment: In vitro MIC, agar dilution, Staphylococcus aureus Q74-1; conditions: read-out: Minimal Inhibitory Concentration
# Experimental: as §1
# Proteus morganii K72 = experiment: In vitro MIC, agar dilution, Proteus morganii K72; conditions: Morganella morganii, read-out: Minimal Inhibitory Concentration
# Experimental: as §1
# [7] = tested on: Enterobacter aerogenes UR76-3; experiment: In vitro MIC, agar dilution, Enterobacter aerogenes UR76-3; conditions: Klebsiella aerogenes, read-out: Minimal Inhibitory Concentration
# Experimental: as §1
# Serratia K101 = experiment: In vitro MIC, agar dilution, Serratia K101; conditions: read-out: Minimal Inhibitory Concentration
# Experimental: as §1
# [8] = tested on: Klebsiella pneumoniae MA75-1; experiment: In vitro MIC, agar dilution, Klebsiella pneumoniae MA75-1; conditions: read-out: Minimal Inhibitory Concentration
# Experimental: as §1
# [9] = tested on: Pseudomonas aeruginosa UCS 76-13; experiment: In vitro MIC, agar dilution, Pseudomonas aeruginosa UCS 76-13; conditions: read-out: Minimal Inhibitory Concentration
# Experimental: as §1
# Escherichia coli W75-1 = experiment: In vitro MIC, agar dilution, Escherichia coli W75-1; conditions: W751, 35° C., 18 hours, nutrient agar, read-out: Minimal Inhibitory Concentration
# Experimental: as §1
# [10] = tested on: Klebsiella pneumoniae UR76-1; experiment: In vitro MIC, agar dilution, Klebsiella pneumoniae UR76-1; conditions: read-out: Minimal Inhibitory Concentration
# Experimental: as §1
# Enterococcus SM77-15 = experiment: In vitro MIC, agar dilution, Enterococcus SM77-15; conditions: read-out: Minimal Inhibitory Concentration
# Experimental: as §1
# [11] = tested on: Klebsiella pneumoniae W75-4; experiment: In vitro MIC, agar dilution, Klebsiella pneumoniae W75-4; conditions: read-out: Minimal Inhibitory Concentration
# Experimental: as §1
# Escherichia coli 311 = experiment: In vitro MIC, agar dilution, Escherichia coli 311; conditions: 35° C., 18 hours, nutrient agar, read-out: Minimal Inhibitory Concentration
# Experimental: as §1
# Serratia marcens QHC77-2 = experiment: In vitro MIC, agar dilution, Serratia marcens QHC77-2; conditions: read-out: Minimal Inhibitory Concentration
# Experimental: as §1
# [12] = tested on: Staphylococcus aureus Q74-6; experiment: In vitro MIC, agar dilution, Staphylococcus aureus Q74-6; conditions: read-out: Minimal Inhibitory Concentration
# Experimental: as §1
# Proteus rettgeri N76-1 = experiment: In vitro MIC, agar dilution, Proteus rettgeri N76-1; conditions: Providencia rettgeri, read-out: Minimal Inhibitory Concentration
# Experimental: as §1
# [13] = tested on: Pseudomonas aeruginosa PD05141; experiment: In vitro MIC, agar dilution, Pseudomonas aeruginosa PD05141; conditions: read-out: Minimal Inhibitory Concentration
# Experimental: as §1
# [14] = tested on: Escherichia coli ESS22-31; experiment: In vitro MIC, agar dilution, Escherichia coli ESS22-31; conditions: read-out: Minimal Inhibitory Concentration
# Experimental: as §1
# Proteus vulgaris N74-1 = experiment: In vitro MIC, agar dilution, Proteus vulgaris N74-1; conditions: N741, 35° C., 18 hours, nutrient agar, read-out: Minimal Inhibitory Concentration
# Experimental: as §1
# [15] = 1244, Pseudomonas aeruginosa 12-4-4, agar dilution, 35° C., 18 hours, nutrient agar
# [16] = W752, Klebsiella pneumoniae W75-2, agar dilution, 35° C., 18 hours, nutrient agar
# [17] = K771, Serratia marcens K77-1, agar dilution, 35° C., 18 hours, nutrient agar
# [18] = MA751, Enterobacter cloacae MA75-1, agar dilution, 35° C., 18 hours, nutrient agar
# [19] = Klebsiella pneumoniae AD, agar dilution, 35° C., 18 hours, nutrient agar
# [20] = OSU752, Enterobacter cloacae OSU75-2, agar dilution, 35° C., 18 hours, nutrient agar
# [21] = Q741, Staphylococcus aureus Q74-1, agar dilution, 35° C., 18 hours, nutrient agar
# [22] = Proteus morganii K72, agar dilution, 35° C., 18 hours, nutrient agar
# [23] = UR763, Enterobacter aerogenes UR76-3, agar dilution, 35° C., 18 hours, nutrient agar
# [24] = Serratia K101, agar dilution, 35° C., 18 hours, nutrient agar
# [25] = MA751, Klebsiella pneumoniae MA75-1, agar dilution, 35° C., 18 hours, nutrient agar
# [26] = UCS7613, Pseudomonas aeruginosa UCS 76-13, agar dilution, 35° C., 18 hours, nutrient agar
# [27] = UR761, Klebsiella pneumoniae UR76-1, agar dilution, 35° C., 18 hours, nutrient agar
# [28] = SM7715, Enterococcus SM77-15, agar dilution, 35° C., 18 hours, nutrient agar
# [29] = W754, Klebsiella pneumoniae W75-4, agar dilution, 35° C., 18 hours, nutrient agar
# [30] = QHC772, Serratia marcens QHC77-2, agar dilution, 35° C., 18 hours, nutrient agar
# [31] = Q746, Staphylococcus aureus Q74-6, agar dilution, 35° C., 18 hours, nutrient agar
# [32] = N761, Proteus rettgeri N76-1, agar dilution, 35° C., 18 hours, nutrient agar
# [33] = Pseudomonas aeruginosa PD05141, agar dilution, 35° C., 18 hours, nutrient agar
# [34] = ESS2231, Escherichia coli ESS22-31, agar dilution, 35° C., 18 hours, nutrient agar
# [35] = Pseudomonas aeruginosa, G236, 18 h
smiles,measurement,setting,value
"CCN1CCN(C(=O)NC(C(=O)NC2C(=O)N3C(C(=O)O)=C(CSc4nnc(-n5nc(C)cc5C)n4N)CS[C@H]23)c2ccc(O)cc2)C(=O)C1=O (stereo partly shown) [Compound VIII, 7-[2-(4-Ethyl-2,3-dioxo-1-piperazinecarboxamido)-2-(p-hydroxyphenyl)acetamido]-3-[4-amino-5-(3,5-dimethyl-1-pyrazolyl)-1,2,4-triazol-3-ylthiomethyl]-3-cephem-4-carboxylic acid]",MIC,[1]; [15],32 µg/mL
same,MIC,[2]; [16],4 µg/mL
same,MIC,Escherichia coli OSU75-1,4 µg/mL
same,MIC,Serratia marcens K77-1; [17],128 µg/mL
same,MIC,[3]; [18],> 128 µg/mL
same,MIC,"[4]; Pseudomonas aeruginosa G236, agar dilution, 35° C., 18 hours, nutrient agar",128 µg/mL
same,MIC,Klebsiella pneumoniae AD; [19],2 µg/mL
same,MIC,[5]; [20],128 µg/mL
same,MIC,[6]; [21],4 µg/mL
same,MIC,Proteus morganii K72; [22],32 µg/mL
same,MIC,[7]; [23],1 µg/mL
same,MIC,Serratia K101; [24],64 µg/mL
same,MIC,[8]; [25],2 µg/mL
same,MIC,[9]; [26],> 128 µg/mL
same,MIC,Escherichia coli W75-1,4 µg/mL
same,MIC,[10]; [27],32 µg/mL
same,MIC,Enterococcus SM77-15; [28],128 µg/mL
same,MIC,[11]; [29],32 µg/mL
same,MIC,Escherichia coli 311,2 µg/mL
same,MIC,Serratia marcens QHC77-2; [30],> 128 µg/mL
same,MIC,[12]; [31],8 µg/mL
same,MIC,Proteus rettgeri N76-1; [32],16 µg/mL
same,MIC,[13]; [33],> 128 µg/mL
same,MIC,[14]; [34],≤ 0.12 µg/mL
same,MIC,Proteus vulgaris N74-1,128 µg/mL
"CC(=O)OCC1=C(C(=O)O)N2C(=O)[C@@H](NC(=O)Cc3cccs3)[C@H]2SC1 [Compound X, Cephalothin, reference compound]",MIC,"[1]; Pseudomonas aeruginosa, 1244, 18 h",> 128 µg/mL
same,MIC,"[2]; Klebsiella pneumoniae, W752, 18 h",2 µg/mL
same,MIC,Escherichia coli OSU75-1,8 µg/mL
same,MIC,"Serratia marcens K77-1; Serratia, K771, 18 h",> 128 µg/mL
same,MIC,"[3]; Enterobacter cloacae, MA751, 18 h",> 128 µg/mL
same,MIC,[4]; [35],> 128 µg/mL
same,MIC,"Klebsiella pneumoniae AD; Klebsiella pneumoniae, 18 h",2 µg/mL
same,MIC,"[5]; Enterobacter cloacae, OSU752, 18 h",> 128 µg/mL
same,MIC,"[6]; Staphylococcus aureus, Q741, 18 h",≤ 0.06 µg/mL
same,MIC,"Proteus morganii K72; K72, 18 h",> 128 µg/mL
same,MIC,"[7]; UR763, 18 h",2 µg/mL
same,MIC,"Serratia K101; Serratia, K101, 18 h",> 128 µg/mL
same,MIC,"[8]; Klebsiella pneumoniae, MA751, 18 h",1 µg/mL
same,MIC,"[9]; Pseudomonas aeruginosa, UCS7613, 18 h",> 128 µg/mL
same,MIC,Escherichia coli W75-1,8 µg/mL
same,MIC,"[10]; Klebsiella pneumoniae, UR761, 18 h",8 µg/mL
same,MIC,"Enterococcus SM77-15; Enterococcus, SM7715, 18 h",32 µg/mL
same,MIC,"[11]; Klebsiella pneumoniae, W754, 18 h",8 µg/mL
same,MIC,Escherichia coli 311,4 µg/mL
same,MIC,"Serratia marcens QHC77-2; Serratia, QHC772, 18 h",> 128 µg/mL
same,MIC,"[12]; Staphylococcus aureus, Q746, 18 h",0.12 µg/mL
same,MIC,"Proteus rettgeri N76-1; N761, 18 h",> 128 µg/mL
same,MIC,"[13]; Pseudomonas aeruginosa, PD05141, 18 h",> 128 µg/mL
same,MIC,"[14]; Escherichia coli, ESS2231, 18 h",≤ 0.06 µg/mL
"Nn1c(SCC2=C(C(=O)O)N3C(=O)C(NC(=O)Cc4cccs4)[C@H]3SC2)nnc1-n1cccn1 (stereo partly shown) [Compound IV, 7[2-(2-Thienyl)acetamido]-3-[4-amino-5-(1-pyrazolyl)-1,2,4-triazol-3-ylthiomethyl]-3-cephem-4-carboxylic acid]",MIC,[1]; [15],> 128 µg/mL
same,MIC,[2]; [16],2 µg/mL
same,MIC,Escherichia coli OSU75-1,4 µg/mL
same,MIC,Serratia marcens K77-1; [17],> 128 µg/mL
same,MIC,[3]; [18],> 128 µg/mL
same,MIC,[4]; [35],> 128 µg/mL
same,MIC,Klebsiella pneumoniae AD; [19],4 µg/mL
same,MIC,[5]; [20],> 128 µg/mL
same,MIC,[6]; [21],≤ 0.12 µg/mL
same,MIC,Proteus morganii K72; [22],> 128 µg/mL
same,MIC,[7]; [23],1 µg/mL
same,MIC,Serratia K101; [24],> 128 µg/mL
same,MIC,[8]; [25],2 µg/mL
same,MIC,[9]; [26],> 128 µg/mL
same,MIC,Escherichia coli W75-1,8 µg/mL
same,MIC,[10]; [27],> 128 µg/mL
same,MIC,Enterococcus SM77-15; [28],32 µg/mL
same,MIC,[11]; [29],16 µg/mL
same,MIC,Escherichia coli 311,4 µg/mL
same,MIC,Serratia marcens QHC77-2; [30],> 128 µg/mL
same,MIC,[12]; [31],0.25 µg/mL
same,MIC,Proteus rettgeri N76-1; [32],> 128 µg/mL
same,MIC,[13]; [33],> 128 µg/mL
same,MIC,[14]; [34],≤ 0.06 µg/mL
